Assay results published in PubChem BioAssay AID1259407 (Chemical Carcinogenesis Research Information System (CCRIS), 2018).
Activity calls are given as the source filed them. No rule for the calls is given here.

System: CCRIS mutagenicity, Ames/micronucleus/aberration tests
Experiment: CCRIS mutagenicity studies

## O=C(O)CN(CC(=O)O)CC(=O)O
End Point: IN VITRO CHROMOSOMAL ABERRATIONS, Test System: CHO CELLS, Metabolic Activation: NONE
  mutagenic call: inactive; negative
End Point: IN VITRO CHROMOSOMAL ABERRATIONS, Test System: CHO CELLS, Metabolic Activation: RAT, LIVER, S-9, AROCLOR 1254
  mutagenic call: inactive; negative
End Point: IN VITRO MICRONUCLEUS, Test System: CHINESE HAMSTER EMBRYONIC LUNG (CL-1) CELLS, Metabolic Activation: NONE
  mutagenic call: active; positive at higher doses
End Point: In vitro micronucleus, Test System: CTLL-2 T mouse lymphocyte cells, Metabolic Activation: None
  mutagenic call: active; positive
End Point: In vitro micronucleus, Test System: CTLL-2 T mouse lymphocyte cells, Metabolic Activation: Rat, Kidney, S9, Aroclor 1254 with NADP
  mutagenic call: inactive; negative
End Point: In vitro micronucleus, Test System: CTLL-2 T mouse lymphocyte cells, Metabolic Activation: Rat, Kidney, S9, Aroclor 1254 with arachidonic acid instead of NADP
  mutagenic call: inactive; negative
End Point: In vitro micronucleus, Test System: CTLL-2 T mouse lymphocyte cells, Metabolic Activation: Rat, Liver, S9, Aroclor 1254
  mutagenic call: inactive; negative
End Point: In vitro micronucleus, Test System: CTLL-2 bcl2 mouse lymphocyte cells, Metabolic Activation: None
  mutagenic call: active; positive
End Point: In vitro micronucleus, Test System: CTLL-2 bcl2 mouse lymphocyte cells, Metabolic Activation: Rat, Kidney, S9, Aroclor 1254 with NADP
  mutagenic call: inactive; negative
End Point: In vitro micronucleus, Test System: CTLL-2 bcl2 mouse lymphocyte cells, Metabolic Activation: Rat, Kidney, S9, Aroclor 1254 with arachidonic acid instead of NADP
  mutagenic call: inactive; negative
End Point: In vitro micronucleus, Test System: CTLL-2 bcl2 mouse lymphocyte cells, Metabolic Activation: Rat, Liver, S9, Aroclor 1254
  mutagenic call: inactive; negative
End Point: In vitro micronucleus, Test System: L5178Y mouse lymphoma cells, Metabolic Activation: None
  mutagenic call: active; positive
End Point: In vitro micronucleus, Test System: L5178Y mouse lymphoma cells, Metabolic Activation: Rat, Kidney, S9, Aroclor 1254 with NADP
  mutagenic call: inactive; negative
End Point: In vitro micronucleus, Test System: L5178Y mouse lymphoma cells, Metabolic Activation: Rat, Kidney, S9, Aroclor 1254 with arachidonic acid instead of NADP
  mutagenic call: inactive; negative
End Point: In vitro micronucleus, Test System: L5178Y mouse lymphoma cells, Metabolic Activation: Rat, Liver, S9, Aroclor 1254
  mutagenic call: inactive; negative
Test System: AMES SALMONELLA TYPHIMURIUM, Strain/Indicator: TA97, Metabolic Activation: HAMSTER, LIVER, S-9, AROCLOR 1254 (10 OR 30%), Method: PREINCUBATION
  mutagenic call: inactive; negative
Test System: AMES SALMONELLA TYPHIMURIUM, Strain/Indicator: TA97, Metabolic Activation: NONE, Method: PREINCUBATION
  mutagenic call: inactive; negative
Test System: AMES SALMONELLA TYPHIMURIUM, Strain/Indicator: TA97, Metabolic Activation: NONE, Method: SUSPENSION/PLATE
  mutagenic call: inactive; negative
Test System: AMES SALMONELLA TYPHIMURIUM, Strain/Indicator: TA97, Metabolic Activation: RAT, LIVER, S-9, AROCLOR 1254 (10 OR 30%), Method: PREINCUBATION
  mutagenic call: inactive; negative
Test System: AMES SALMONELLA TYPHIMURIUM, Strain/Indicator: TA98, Metabolic Activation: HAMSTER, LIVER, S-9, AROCLOR 1254 (10 OR 30%), Method: PREINCUBATION
  mutagenic call: inactive; negative
Test System: AMES SALMONELLA TYPHIMURIUM, Strain/Indicator: TA98, Metabolic Activation: HAMSTER, LIVER, S-9, AROCLOR 1254, Method: STANDARD PLATE
  mutagenic call: inactive; negative
Test System: AMES SALMONELLA TYPHIMURIUM, Strain/Indicator: TA98, Metabolic Activation: HAMSTER, LIVER, S-9, Method: STANDARD PLATE
  mutagenic call: inactive; negative
Test System: AMES SALMONELLA TYPHIMURIUM, Strain/Indicator: TA98, Metabolic Activation: MOUSE, LIVER, S-9, AROCLOR 1254, Method: STANDARD PLATE
  mutagenic call: inactive; negative
Test System: AMES SALMONELLA TYPHIMURIUM, Strain/Indicator: TA98, Metabolic Activation: MOUSE, LIVER, S-9, Method: STANDARD PLATE
  mutagenic call: inactive; negative
Test System: AMES SALMONELLA TYPHIMURIUM, Strain/Indicator: TA98, Metabolic Activation: NONE, Method: PREINCUBATION
  mutagenic call: inactive; negative
Test System: AMES SALMONELLA TYPHIMURIUM, Strain/Indicator: TA98, Metabolic Activation: NONE, Method: STANDARD PLATE
  mutagenic call: inactive; negative
Test System: AMES SALMONELLA TYPHIMURIUM, Strain/Indicator: TA98, Metabolic Activation: NONE, Method: SUSPENSION/PLATE
  mutagenic call: inactive; negative
Test System: AMES SALMONELLA TYPHIMURIUM, Strain/Indicator: TA98, Metabolic Activation: RAT, LIVER, S-9, AROCLOR 1254 (10 OR 30%), Method: PREINCUBATION
  mutagenic call: inactive; negative
Test System: AMES SALMONELLA TYPHIMURIUM, Strain/Indicator: TA98, Metabolic Activation: RAT, LIVER, S-9, AROCLOR 1254, Method: STANDARD PLATE
  mutagenic call: inactive; negative
Test System: AMES SALMONELLA TYPHIMURIUM, Strain/Indicator: TA98, Metabolic Activation: RAT, LIVER, S-9, Method: STANDARD PLATE
  mutagenic call: inactive; negative
Test System: AMES SALMONELLA TYPHIMURIUM, Strain/Indicator: TA100(1,8-DNP6), Metabolic Activation: NONE, Method: SUSPENSION/PLATE
  mutagenic call: inactive; negative
Test System: AMES SALMONELLA TYPHIMURIUM, Strain/Indicator: TA100(NR), Metabolic Activation: NONE, Method: SUSPENSION/PLATE
  mutagenic call: inactive; negative
Test System: AMES SALMONELLA TYPHIMURIUM, Strain/Indicator: TA100, Metabolic Activation: HAMSTER, LIVER, S-9, AROCLOR 1254 (10 OR 30%), Method: PREINCUBATION
  mutagenic call: inactive; negative
Test System: AMES SALMONELLA TYPHIMURIUM, Strain/Indicator: TA100, Metabolic Activation: HAMSTER, LIVER, S-9, AROCLOR 1254, Method: STANDARD PLATE
  mutagenic call: inactive; negative
Test System: AMES SALMONELLA TYPHIMURIUM, Strain/Indicator: TA100, Metabolic Activation: HAMSTER, LIVER, S-9, Method: STANDARD PLATE
  mutagenic call: inactive; negative
Test System: AMES SALMONELLA TYPHIMURIUM, Strain/Indicator: TA100, Metabolic Activation: MOUSE, LIVER, S-9, AROCLOR 1254, Method: STANDARD PLATE
  mutagenic call: inactive; negative
Test System: AMES SALMONELLA TYPHIMURIUM, Strain/Indicator: TA100, Metabolic Activation: MOUSE, LIVER, S-9, Method: STANDARD PLATE
  mutagenic call: inactive; negative
Test System: AMES SALMONELLA TYPHIMURIUM, Strain/Indicator: TA100, Metabolic Activation: NONE, Method: PREINCUBATION
  mutagenic call: inactive; negative
Test System: AMES SALMONELLA TYPHIMURIUM, Strain/Indicator: TA100, Metabolic Activation: NONE, Method: STANDARD PLATE
  mutagenic call: inactive; negative
Test System: AMES SALMONELLA TYPHIMURIUM, Strain/Indicator: TA100, Metabolic Activation: NONE, Method: SUSPENSION/PLATE
  mutagenic call: inactive; negative
Test System: AMES SALMONELLA TYPHIMURIUM, Strain/Indicator: TA100, Metabolic Activation: RAT, LIVER, S-9, AROCLOR 1254 (10 OR 30%), Method: PREINCUBATION
  mutagenic call: inactive; negative
Test System: AMES SALMONELLA TYPHIMURIUM, Strain/Indicator: TA100, Metabolic Activation: RAT, LIVER, S-9, AROCLOR 1254, Method: STANDARD PLATE
  mutagenic call: inactive; negative
Test System: AMES SALMONELLA TYPHIMURIUM, Strain/Indicator: TA100, Metabolic Activation: RAT, LIVER, S-9, Method: STANDARD PLATE
  mutagenic call: inactive; negative
Test System: AMES SALMONELLA TYPHIMURIUM, Strain/Indicator: TA102, Metabolic Activation: NONE, Method: SUSPENSION/PLATE
  mutagenic call: inactive; negative
Test System: AMES SALMONELLA TYPHIMURIUM, Strain/Indicator: TA1535, Metabolic Activation: HAMSTER, LIVER, S-9, AROCLOR 1254 (10 OR 30%), Method: PREINCUBATION
  mutagenic call: inactive; negative
Test System: AMES SALMONELLA TYPHIMURIUM, Strain/Indicator: TA1535, Metabolic Activation: HAMSTER, LIVER, S-9, AROCLOR 1254, Method: STANDARD PLATE
  mutagenic call: inactive; negative
Test System: AMES SALMONELLA TYPHIMURIUM, Strain/Indicator: TA1535, Metabolic Activation: HAMSTER, LIVER, S-9, Method: STANDARD PLATE
  mutagenic call: inactive; negative
Test System: AMES SALMONELLA TYPHIMURIUM, Strain/Indicator: TA1535, Metabolic Activation: MOUSE, LIVER, S-9, AROCLOR 1254, Method: STANDARD PLATE
  mutagenic call: inactive; negative
Test System: AMES SALMONELLA TYPHIMURIUM, Strain/Indicator: TA1535, Metabolic Activation: MOUSE, LIVER, S-9, Method: STANDARD PLATE
  mutagenic call: inactive; negative
Test System: AMES SALMONELLA TYPHIMURIUM, Strain/Indicator: TA1535, Metabolic Activation: NONE, Method: PREINCUBATION
  mutagenic call: inactive; negative
